Measured values from patent publication US9611277B2 (Janssen Pharmaceutica NV, priority 2013, dated 2017).
Where two headings read alike, the source gives them in different places.

Legend:
rat orexin 1 receptor = rat orexin 1 receptor (Rattus norvegicus, UniProt P56718); test: Rat orexin 1 receptor radioligand binding; conditions: read-out: rOX1 Ki
Procedure, shortened: (§1)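 Competition binding with the tritiated thiazolyl-pyrrolidinyl-methanone radioligand in PBS on homogenized rat or human OX1R-expressing cell suspensions, ≤0.1% DMSO; nonspecific binding defined with 10 μM almorexant. Bound radioactivity read by scintillation after filtration; IC50 from one-site competition fit, converted to Ki using pre-determined radioligand Kd.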

human orexin 1 receptor = human orexin 1 receptor (Homo sapiens, UniProt O43613); test: Human orexin 1 receptor radioligand binding; conditions: read-out: hOX1 Ki
Procedure, shortened: as §1

human orexin 2 receptor = human orexin 2 receptor (Homo sapiens (Human), UniProt O43614); test: Human orexin 2 receptor radioligand binding; conditions: read-out: hOX2 Ki
Sequence of human orexin 2 receptor (O43614 whole entry): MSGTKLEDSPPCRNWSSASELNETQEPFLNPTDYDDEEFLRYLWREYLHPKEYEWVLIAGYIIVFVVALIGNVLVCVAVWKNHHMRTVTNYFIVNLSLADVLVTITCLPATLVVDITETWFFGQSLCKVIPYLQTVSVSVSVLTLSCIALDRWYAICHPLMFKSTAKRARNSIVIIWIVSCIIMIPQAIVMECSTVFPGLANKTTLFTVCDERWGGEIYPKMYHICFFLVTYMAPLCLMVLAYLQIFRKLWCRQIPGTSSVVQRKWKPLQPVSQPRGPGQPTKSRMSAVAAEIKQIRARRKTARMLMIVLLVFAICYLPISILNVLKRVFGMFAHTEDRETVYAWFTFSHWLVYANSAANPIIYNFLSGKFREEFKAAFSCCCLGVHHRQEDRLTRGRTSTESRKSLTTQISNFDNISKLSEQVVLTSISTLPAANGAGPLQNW
Procedure, shortened: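 HEK293 cells stably expressing human OX2 receptor, homogenized, incubated with [3H]-EMPA and compounds (DMSO ≤0.1%); nonspecific binding with 10 μM almorexant. Filter-bound radioactivity counted by scintillation; IC50 from one-site competition fit of triplicates, Ki from IC50 and predetermined radioligand Kd, averaged over 2-20 runs.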

[1] = rat orexin 1 receptor, averages of 2-20 runs
[2] = human orexin 1 receptor, averages of 2-20 runs
[3] = human orexin 2 receptor, averages of 2-20 runs

Molecule | Ki (rat orexin 1 receptor; [1]) [nM] | Ki (human orexin 1 receptor; [2]) [nM] | Ki (human orexin 2 receptor; [3]) [nM] | Ki (rat orexin 1 receptor) [nM] | Ki (human orexin 1 receptor) [nM] | Ki (human orexin 2 receptor) [nM]
Cc1ccc(-c2ncccn2)c(C(=O)N2C[C@H]3C[C@@H](Oc4ncc(Cl)cn4)[C@@H]2C3)n1 [Example 285, ((1S,4R,6R)-6-((5-chloropyrimidin-2-yl)oxy)-2-azabicyclo[2.2.1]heptan-2-yl)(6-methyl-3-(pyrimidin-2-yl)pyridin-2-yl)methanone] | 117 | 215 | 6000 |  |  | 
O=C(c1ccccc1-n1nccn1)N1C[C@H]2C[C@@H](Oc3ccc4cccnc4n3)[C@@H]1C2 [Example 287, ((1S,4R,6R)-6-((1,8-naphthyridin-2-yl)oxy)-2-azabicyclo[2.2.1]heptan-2-yl)(2-(2H-1,2,3-triazol-2-yl)phenyl)methanone] | 155 | 226 | 2700 |  |  | 
Cc1cnc(C(=O)N2C[C@H]3C[C@@H](Oc4ccc(C(F)F)cn4)[C@@H]2C3)c(-c2ncccn2)c1 [Example 288, ((1S,4R,6R)-6-((5-(difluoromethyl)pyridin-2-yl)oxy)-2-azabicyclo[2.2.1]heptan-2-yl)(5-methyl-3-(pyrimidin-2-yl)pyridin-2-yl)methanone] | 29 | 39 | 5100 |  |  | 
Cc1cnc(-c2ncccn2)c(C(=O)N2C[C@H]3C[C@@H](Oc4ccc(C(F)(F)F)cn4)[C@@H]2C3)c1 [Example 290, (5-methyl-2-(pyrimidin-2-yl)pyridin-3-yl)((1S,4R,6R)-6-((5-(trifluoromethyl)pyridin-2-yl)oxy)-2-azabicyclo[2.2.1]heptan-2-yl)methanone] | 97 | 188 | > 10000 |  |  | 
Cc1noc(-c2cc(F)ccc2C(=O)N2C[C@H]3C[C@@H](Oc4ccc(C(F)(F)F)cn4)[C@@H]2C3)n1 [Example 291, (4-fluoro-2-(3-methyl-1,2,4-oxadiazol-5-yl)phenyl)((1S,4R,6R)-6-((5-(trifluoromethyl)pyridin-2-yl)oxy)-2-azabicyclo[2.2.1]heptan-2-yl)methanone] | 43 | 82 | 4200 |  |  | 
O=C(c1c(F)cccc1-c1ncco1)N1C[C@H]2C[C@@H](Oc3ccc(C(F)(F)F)cn3)[C@@H]1C2 [Example 292, (2-fluoro-6-(oxazol-2-yl)phenyl)((1S,4R,6R)-6-((5-(trifluoromethyl)pyridin-2-yl)oxy)-2-azabicyclo[2.2.1]heptan-2-yl)methanone] | 19 | 40 | 673 |  |  | 
O=C(c1cc(F)ccc1-c1ncco1)N1C[C@H]2C[C@@H](Oc3ccc(C(F)(F)F)cn3)[C@@H]1C2 [Example 293] | 16 | 26 | 535 |  |  | 
Cc1cnc(C(=O)N2C[C@H]3C[C@@H](Oc4ccc(C(F)(F)F)cn4)[C@@H]2C3)c(-n2ccnn2)c1 [Example 294] | 166 | 580 | 1400 |  |  | 
COc1ccc(C(=O)N2C[C@H]3C[C@@H](Oc4ccc(C(F)(F)F)cn4)[C@@H]2C3)c(-c2ncccn2)c1 [Example 295] | 19 | 34 | 5800 |  |  | 
O=C(c1ncccc1-c1ncccn1)N1C[C@H]2C[C@@H](Oc3ccc(C(F)(F)F)cn3)[C@@H]1C2 [Example 296] | 8 | 14 | 474 |  |  | 
O=C(c1ccccc1-c1ncccn1)N1C[C@H]2C[C@@H](Oc3ccc(C(F)(F)F)cn3)[C@@H]1C2 [Example 297] | 10 | 10 | 606 |  |  | 
Cc1cnc(C(=O)N2C[C@H]3C[C@@H](Oc4ccc(C(F)(F)F)cn4)[C@@H]2C3)c(-c2ncccn2)c1 [Example 298] | 24 | 29 | > 10000 |  |  | 
O=C(c1ccccc1-n1nccn1)N1C[C@H]2C[C@@H](Oc3ncc(Cl)cn3)[C@@H]1C2 [Example 300] | 92 | 112 | 3700 |  |  | 
(3-fluoro-2-(pyrimidin-2-yl)phenyl)((1S,4R,6R)-6-((5-(trifluoromethyl)pyrazin-2-yl)amino)-2-azabicyclo[2.2.2]octan-2-yl)methanone [Example 80] | 9 | 7 | 456 |  |  | 
((1S,4S,6R)-6-((5-chloropyrimidin-2-yl)amino)-2-azabicyclo[2.2.1]heptan-2-yl)(2-(5-fluoropyrimidin-2-yl)phenyl)methanone [Example 241] |  |  |  | 21 | 12 | 971
((1S,4S,6R)-6-((5-chloropyrimidin-2-yl)amino)-2-azabicyclo[2.2.1]heptan-2-yl)(5-fluoro-2-(pyrimidin-2-yl)phenyl)methanone [Example 238] | 20 | 8 |  |  |  | 991
